Data from patent US20190091189A1, “ADMINISTRATION OF EXOGENOUS KETONE TO LOWER BLOOD GLUCOSE” (priority 2016, published 2019).

Columns and labels:
[1] = Chronic feeding (83 days) of ketone supplements, blood βHB and glucose; type: in vivo, Sprague-Dawley rats; conditions: SPD rats, after 83 days of chronic feeding (~25 g/kg b.w./day), compared to control
Text: A total of 48 male SPD rats were fed for 83 days with either standard rodent chow (2018 Teklad Global 18% Protein Rodent Diet (#2018), Harlan) standard diet (SD)/control; n=9) or SD+ketone supplementation. Four treatment animal groups included low-dose KE (˜10 g/kg b.w./day, Low-dose ketone ester (LKE); n=10), high-dose KE (˜25 g/kg b.w./day, high dose ketone ester (HKE); n=10), KS (˜25 g/kg b.w./day, KS; n=9) and KSMCT (˜25 g/kg b.w./day, KSMCT; n=10).
(§1) In the chronic feeding study, blood βHB and glucose levels were measured 24 h before the 1st day of ketone treatments (baseline levels) and at 13th week. In the 7 day oral gavage studies, blood βHB and glucose levels were measured 24 h before the 1st day of ketone treatments (baseline levels; SPD and WAG/Rij rats), 24 h after the first gavage and 60 min after gavage on the 7th day (SPD and WAG/Rij rats). Whole blood samples (10 μL) were taken from the saphenous vein for analysis of blood glucose (mg/dl) and βHB (mmol/1) levels with the commercially available glucose and ketone (βHB) monitoring system Precision Xtra™ (Abbott Laboratories, Abbott Park, Ill., USA).

[2] = Sub-chronic oral gavage (7 days), blood βHB and glucose, without exercise; type: in vivo, Sprague-Dawley rats; conditions: SPD rats, 5 g/kg b.w./day gavage
Text: (§2) In order to familiarize the animals to the intragastric gavage method, water was gavaged for 5 days before ketone supplementation. Following the adaptation period to the intragastric gavage method, 39 male SPD rats were fed with standard diet, and gavaged daily with 5 g/kg b.w./day water (SD/control; n=11) or ketone supplements KE (n=9), KS (n=9), KSMCT (n=10) sub-chronically for 7 days. In addition, following the adaptation period to the intragastric gavage method, WAG/Rij male rats (n=32) were fed with SD and gavaged sub-chronically with about 2.5 g/kg b.w./day water (SD/control; n=8), KE (n=8), KS (n=8) or KSMCT (n=8) for 7 days.
as §1

[3] = as above; type: in vivo; conditions: WAG/Rij rats; for blood βHB: about 2.5 g/kg b.w./day, after 7 days of gavage, compared to baseline, 24 h and control
Text: as §2, §1

[4] = Multiple treatment (7 days) and rotarod exercise, blood βHB and glucose; type: in vivo, Sprague-Dawley rats; conditions: exercised SPD rats
Text: Four month old Sprague-Dawley rats were first acclimated to oral gavage with administration of tap water once daily for a period of 5 days. The rats were then divided into 5 groups, and fed either a standard diet (SD), a ketogenic diet (KD), or a standard diet supplemented with a once daily oral gavage of a ketogenic compound as outlined in Table 1. The ketogenic compound was selected from 1,3-butanediol-acetoacetate diester (SD+KE), β-hydroxybutyrate mineral salt (SD+KS), or β-hydroxybutyrate mineral salt and a medium chain triglyceride (SD+KSMCT). The above ketogenic compounds were provided at a dose of 5 g/kg of body weight.
Each group of animals was maintained on the respective dietary conditions for 7 days. Whole blood samples (10 μL) were collected from the saphenous vein of rats. The levels of blood glucose (mg/dL) and β-hydroxybutyrate (mmol/L) were measured with the commercially available glucose monitoring system PRECISION XTRA® (Abbott Laboratories, Abbott Park, Ill., USA). It is noted that the PRECISION XTRA® only measures β-hydroxybutyrate levels, therefore total blood ketone levels may be higher than measured.
Rats were exercised on a Rota Rod Rotamex 5 (Columbus Instruments). Animals were exercised on the rotarod for 5 consecutive days before treatment began in order to acclimate to the equipment and the task. The rats were placed on rods of the accelerating rotarod and the time the animals remained on the rotarod was measured. The rotarod was set to accelerate to 40 rpm in 180 seconds. Each training and testing consisted of 3 trials, with a 2 minute rest period between each trial. Animals were placed on the rotarod and timed until they fell from the rotating rod. The animals were evaluated on the rotarod exercise test after the 5 days training period but prior to the beginning of dietary treatment (baseline), 24 hours after treatment, and after 7 days of dietary treatment.
The animals were evaluated for blood levels of glucose and ketone bodies β-hydroxybutyrate), prior to the beginning of dietary treatment, 24 hours after treatment, and after 7 days of dietary treatment.

[5] = 10-week feeding of G1D mice, blood ketone and glucose; type: in vivo; conditions: fed for 10 weeks, 10% KE or 20% KS in standard diet, or ketogenic diet
Description: GLUT1 deficiency syndrome (G1D) is characterized by impaired glucose transport in the brain and diagnosed with CSF glucose value of <2.2 mmol/L. There is no cure for G1D, but the ketogenic diet (KD) is often effective for the drug-resistant seizures and impairment of motor function associated with the disease. The effect of ketogenic compounds on blood glucose levels was assessed in glucose transporter type 1 (G1D)-deficient mice. A group of 48 G1D mice, aged 2-5 months old, were fed for 10 weeks with either a standard rodent diet (SD), a ketogenic diet (KD), a standard diet supplemented with 10% ketone ester (SD+KE) or a standard diet supplemented with 20% ketone mineral salt (SD+KS).

[6] = 5 g/kg once daily gavage (or ketogenic diet), 24 hours after treatment
[7] = 5 g/kg once daily gavage (or ketogenic diet), after 24 hours, compared to baseline
[8] = 5 g/kg once daily gavage (or ketogenic diet), after 7 days
[9] = 5 g/kg once daily gavage, after 7 days

Row | Molecule | blood βHB levels [1] | blood βHB levels ([2]; 24 h after a single gavage, compared to control) | blood glucose levels ([2]; at 24 h, compared to control) | glucose levels ([3]; about 2.5 g/kg b.w./day gavage, after 24 h, compared to baseline and control group) | blood βHB [3] | blood βHB after exercise [4, 6] | blood glucose levels after exercise [4, 7] | blood βHB after exercise [4, 8] | blood glucose levels after exercise [4, 9] | blood glucose level [5] | blood ketone level [5] | blood βHB ([2]; 7 days, compared to control group)
1 | CC(=O)CC(=O)OCCC(C)OC(=O)CC(C)=O (centres unmarked) [KE, 1,3-butanediol-acetoacetate diester] | significantly elevated | elevated | lower | lower | elevated | elevated levels | reduce blood glucose levels | trend towards baseline levels | trended towards baseline | quickly dropped and remained the lowest | slow and slight elevation | –
2 | Na^+/K^+-β-hydroxybutyrate mineral salt [KS] | significantly elevated | – | – | – | elevated | no change | increase | significant increase | decline towards baseline | early decrease | significant and rapid elevation | elevated
